From PMC9026148, “Pre-Clinical Study Evaluating Novel Protein Phosphatase 2A Activators as Therapeutics for Neuroblastoma” (Cancers, 2022)
Where two headings read alike, the source gives them in different places.

Tests used:
SK-N-AS cells = experiment: CellTiter 96 proliferation, SK-N-AS; assay type: cell-based; conditions: Homo sapiens, 24 h
Experimental: (§1) CellTiter 96® Aqueous One Solution Cell Proliferation assay (Promega, Madison, WI, USA) was used to examine proliferation, and alamarBlue® assay (Thermo Fisher Scientific, Inc.) was used to evaluate viability. Cells, concentrations ranging from 5 × 10^3 to 1.5 × 10^4, depending on cell type due to wide variation in growth characteristics between established cell lines and PDX cells, were plated in 96-well plates and treated with increasing doses of 792 or 1154 for 24 h. CellTiter 96® or alamarBlue® dye (10 µL) was added for proliferation and viability assays, respectively. A microplate reader (Epoch Microplate Spectrophotometer, BioTek Instruments, Winooski, VT) measured absorbance at 490 nm for CellTiter 96® and at 570 nm for alamarBlue®, using 600 nm as a reference. […] Experiments were completed with at least three biologic replicates, and data reported as fold change ± SEM.
Supplemental Figure S3: Novel PP2A activating compounds decrease d neuroblastoma proliferation and viability. SK-N-AS and SK-N-BE(2) cells (1.5 x 104) were plated in 96-well plates and treated with increasing doses of nine PP2A activating compounds for 24 […]
novel PP2A activators tested in (A) SK-N-AS and (B) SK-N-BE(2) cells. Similarly, PP2A […]
(D) SK-N-BE(2) cells. Data reported as mean fold change ± SEM, and experiments were repeated with at least three biologic replicates. […]

CYP-3A4 = target: T1, CYP-3A4 (Homo sapiens, UniProt P08684); experiment: Time-dependent CYP-3A4 inhibition (midazolam turnover, human liver microsomes); assay type: in vitro ADME; conditions: for IC50: 50% inhibition of midazolam turnover
T1 construct: tissue Bioduro, LLC (contract lab that ran the assay); host or cells: human liver microsomes
T1 sequence (P08684 whole entry): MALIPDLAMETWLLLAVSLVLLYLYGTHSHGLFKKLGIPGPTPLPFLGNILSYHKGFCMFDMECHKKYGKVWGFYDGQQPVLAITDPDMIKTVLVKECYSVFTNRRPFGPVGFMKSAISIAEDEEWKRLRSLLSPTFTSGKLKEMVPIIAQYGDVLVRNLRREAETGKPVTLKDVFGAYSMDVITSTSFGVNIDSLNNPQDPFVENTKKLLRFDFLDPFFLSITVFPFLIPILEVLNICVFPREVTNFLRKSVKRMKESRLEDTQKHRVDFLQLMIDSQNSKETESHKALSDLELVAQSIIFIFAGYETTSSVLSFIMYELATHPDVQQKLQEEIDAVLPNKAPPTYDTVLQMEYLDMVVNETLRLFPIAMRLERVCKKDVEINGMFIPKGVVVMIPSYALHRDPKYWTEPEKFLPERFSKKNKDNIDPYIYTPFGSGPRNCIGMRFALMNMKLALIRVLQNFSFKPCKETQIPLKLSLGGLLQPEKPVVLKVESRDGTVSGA
Experimental: Time-dependent CYP-3A4 inhibition assays were performed by Bioduro, LLC. In brief, the test compound is pre-incubated with human liver microsomes (0.25 mg/mL in reaction) and NADPH (0.5 mM in reaction) for 5, 30, and 60 min to allow metabolite formation. Midazolam, a known standard substrate of CYP-3A4, is added to give 2.5 µM reaction concentration, and consumption (microsome stability) of midazolam is assayed as above.

SK-N-BE(2) cells [1] = experiment: alamarBlue viability, SK-N-BE(2); assay type: cell-based, human; conditions: 24 h
Experimental: as §1, with “SEM. […]” for “SEM.”
(§2) Supplemental Table S1: Neuroblastoma cells had the highest sensitivity to 792 and 1154.
(§3) (A) SK-N-AS and (B) SK-N-BE(2) cells (1.5 x 104) were plated in 96-well plates and treated with increasing doses of nine PP2A activating compounds for 24 hours. Compounds 792 and 1154 had the lowest LD50s of the nine compounds investigated in both cell lines.
(§4) Supplemental Figure S4: SK-N-AS cells were treated with FTY720 (0, 5 μM), 792 (10 μM), or 1154 (10 μM) for 24 hours and PP2A activity was measured. […]

PP2A [2] = target: T2, PP2A (Homo sapiens, UniProt P30153+P67775); experiment: PP2A immunoprecipitation phosphatase assay in SH-EP cells; assay type: cell-based; conditions: 24 h, 10 μM in text (15 μM in Figure 2 legend), control 100 ± 0%
T2 construct: host or cells: SH-EP
T2 sequence (P67775 whole entry): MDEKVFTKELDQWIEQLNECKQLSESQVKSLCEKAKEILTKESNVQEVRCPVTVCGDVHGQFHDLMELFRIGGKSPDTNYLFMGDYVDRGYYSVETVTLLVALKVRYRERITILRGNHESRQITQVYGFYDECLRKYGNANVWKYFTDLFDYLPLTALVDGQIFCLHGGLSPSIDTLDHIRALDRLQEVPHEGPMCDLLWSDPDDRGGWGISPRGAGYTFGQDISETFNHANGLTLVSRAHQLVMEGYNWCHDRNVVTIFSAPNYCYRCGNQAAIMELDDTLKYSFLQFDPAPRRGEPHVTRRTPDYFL
T2 sequence (P30153 2-589 limits assumed): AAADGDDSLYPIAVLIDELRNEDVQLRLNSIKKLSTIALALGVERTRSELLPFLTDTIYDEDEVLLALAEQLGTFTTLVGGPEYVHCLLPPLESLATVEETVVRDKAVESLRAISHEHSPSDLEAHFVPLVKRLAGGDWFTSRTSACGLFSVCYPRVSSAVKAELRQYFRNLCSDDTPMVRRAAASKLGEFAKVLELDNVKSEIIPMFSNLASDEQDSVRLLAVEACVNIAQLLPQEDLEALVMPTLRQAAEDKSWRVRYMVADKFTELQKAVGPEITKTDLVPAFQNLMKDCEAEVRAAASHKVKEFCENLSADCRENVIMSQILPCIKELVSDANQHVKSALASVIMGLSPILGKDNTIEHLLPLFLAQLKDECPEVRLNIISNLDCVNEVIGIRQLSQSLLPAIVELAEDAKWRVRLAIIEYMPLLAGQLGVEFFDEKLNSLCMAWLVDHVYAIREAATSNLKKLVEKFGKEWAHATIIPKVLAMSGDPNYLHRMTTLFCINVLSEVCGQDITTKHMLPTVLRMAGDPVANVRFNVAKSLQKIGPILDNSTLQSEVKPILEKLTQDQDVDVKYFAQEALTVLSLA

PP2A [3] = experiment: PP2A immunoprecipitation phosphatase assay in SK-N-AS cells; assay type: cell-based, human; conditions: 24 h; for PP2A activation compared with FTY720: 10 μM vs FTY720 5 μM, p ≤ 0.01; for PP2A activation (percent PP2A activity): 10 μM, control 100 ± 0%
Experimental: SK-N-AS cells (1 × 10^6) were treated with FTY720 (5 μM), 792 (10 μM), or 1154 (10 μM) for 24 h and lysed using HEPES (AC215001000, Thermo Fisher Scientific Inc.), MgCl2 (MX0045-4, EM Science, Gibbstown, NJ, USA), KCl (02-003-741, Thermo Fisher Scientific Inc.), PMSF (Sigma Aldrich), dithiothreitol (EC-601, National Diagnostics, Atlanta, GA, USA), and Igepal CA-630 ([…], Sigma Aldrich) for 20 min on ice. Cell lysates were centrifuged at 17,000 rpm for 30 min at 4 °C. The commercially available PP2A Immunoprecipitation Phosphatase Assay Kit (17-313, EMD Millipore) has been used by other investigators to directly measure PP2A activity and was utilized per manufacturer's protocol to evaluate the activity of PP2A following treatment and compared to untreated cells. Experiments were completed at least in triplicate, and data reported as mean fold change ± standard error of the mean (SEM).

[4] = Microsome (oxidative metabolism) stability, mouse; assay type: in vitro ADME; conditions: for half-life at 1 µM: liver microsomes 0.5 mg/mL, NADPH, read-out: T1/2 Mouse; for microsomal CLint at 1 µM: liver microsomes, read-out: CL Mouse
Experimental: (§5) Microsome stability assays were performed by Bioduro, LLC. Briefly, 2.5 µL (100 µM in DMSO) of test compounds are added to 197.5 µL of human, rat, or mouse microsome preparation (0.633 mg/mL in phosphate buffer) and mixed gently at 37 °C. The reaction is started by adding 50 µL NADPH (5 mM in phosphate buffer) and mixing at 37 °C. The final reaction microsome concentration is 0.5 mg/mL. The reaction is sampled at 0, 5, 15, 30, and 60 min. Reaction aliquots are quenched by adding to 1:1 methanol–acetonitrile containing analytical standards and analyzed by liquid chromatography with tandem mass spectrometry (LC-MS/MS).

SK-N-BE(2) cells [5] = experiment: CellTiter 96 proliferation, SK-N-BE(2); assay type: cell-based; conditions: Homo sapiens, SKNBE2, 24 h
Experimental: as §1, with “SEM. […]” for “SEM.”
as §2, §3, §4

[6] = Microsome (oxidative metabolism) stability, rat; assay type: in vitro ADME; conditions: for half-life at 1 µM: liver microsomes 0.5 mg/mL, NADPH, read-out: T1/2 Rat; for microsomal CLint at 1 µM: liver microsomes, read-out: CL Rat
Experimental: as §5

[7] = 5 min pre-incubation, read-out: IC50 at Pre-incubation time 5 min
[8] = 30 min pre-incubation, read-out: IC50 at Pre-incubation time 30 min
[9] = 60 min pre-incubation, read-out: IC50 at Pre-incubation time 60 min

SMILES	IC50 (SK-N-AS cells) [µM]	IC50 (CYP-3A4; [7]) [µM]	IC50 (CYP-3A4; [8]) [µM]	IC50 (CYP-3A4; [9]) [µM]	CYP-3A4 inhibition (CYP-3A4; time-dependent inhibition assay)	LD50 (SK-N-BE(2) cells [1]) [µM]	PP2A activation (percent PP2A activity) (PP2A [2]) [%]	PP2A activation compared with FTY720 (PP2A [3])	PP2A activation (percent PP2A activity) (PP2A [3]) [%]	half-life at 1 µM [4] [min]	microsomal CLint at 1 µM [4] [µL/min/mg]	IC50 (SK-N-BE(2) cells [5]) [µM]	half-life at 1 µM [6] [min]	microsomal CLint at 1 µM [6] [µL/min/mg]	IC50 shift (CYP-3A4; human, human liver microsomes, probe midazolam (2.5 µM), ratio IC50 5 min / 60 min pre-incubation)
O=S(=O)(N[C@H]1COC[C@@H](n2c3ccc(Cl)cc3c3cc(Cl)ccc32)[C@@H]1O)c1ccc(OC(F)(F)F)cc1 [ATUX-792]	23.9	> 50	> 50	> 50	no CYP-3A4 inhibition	17.2	117.3 ± 7.2	significantly more than FTY720	117.5 ± 5.6	> 256	< 5	17.2	> 256	< 5	–
O=S(=O)(NC1CCCC(N2c3ccccc3CCc3ccccc32)C1O)c1ccc(OC(F)(F)F)cc1 (stereo not shown) [DBK-1154]	22.4	42	27	18	–	16.6	138.0 ± 16.5	significantly more than FTY720	134.8 ± 18.4	6	234	23.8	3	521	2.4
